# Laboratory results as given in patent US20240252496A1, “SELECTIVE HYPOTHALAMUS PERMEABLE HDAC6 INHIBITORS FORTREATMENT OF LEPTIN-RESISTANT OBESITY” (The Children’s Medical Center Corporation, priority 2022, published 2024).
# Several values for one entry are separate records, joined by “and”; a condition that tells them apart may be missing. Identical values can stand only once. Like-named read-outs stand apart in the source and are kept apart here.
# What was measured:
# DIO mice [1] = experiment: Acute leptin co-treatment in DIO mice (body weight, food intake 15 h); format: in vivo; details: for body weight, inhibitor alone: 3 days pretreatment i.p., ACY775 10, ricolinostat 25 mg/kg; for food intake, inhibitor alone: ACY775 10, ricolinostat 25 mg/kg i.p.; for body weight 15 h after leptin in inhibitor-pretreated mice / food intake 15 h after leptin in inhibitor-pretreated mice: leptin 1 mg/kg i.p., ACY775 10, ACY738 50, ricolinostat 25 mg/kg/day i.p.
# Method: DIO mice were pretreated with ACY775 (10 mg/kg/day, i.p.) or vehicle for 3 days, which was followed by co-treatment with ACY775 (or vehicle) and leptin (1 mg/kg, i.p.) (or saline) (n=9 for each group), % change in body weight 15 h after leptin treatment, food intake (g) during the 15 h period after leptin treatment. The results in were reproduced in two independent experiments.
# Diet induced obese (DIO) mice were pretreated with ACY775 (10 mg/kg/day, i.p.) or vehicle for 3 days, which was followed by co-treatment with ACY775 (or vehicle) and leptin (1 mg/kg, i.p.) (or saline) (n=9 for each group). Mice were evaluated for % change in body weight 15 h after leptin treatment, and food intake (g) during the 15 h period after leptin treatment.
# DIO mice were pretreated with ricolinostat (25 mg/kg/day, i.p.) or vehicle for 3 days, which was followed by co-treatment with ricolinostat (or vehicle) and leptin (1 mg/kg, i.p.) (or saline) (n=32 for each group). Change in body weight 15 h after leptin treatment, and food intake (g) during the 15 h period after leptin treatment were determined. The results were reproduced in two independent experiments.
# DIO mice [2] = experiment: Single dose food intake in 24 h-fasted DIO mice; format: in vivo; details: ACY775 10, ACY738 50 mg/kg i.p.
# Method: Food intake was analyzed hourly until 3:00 am. […] DEXA scans were performed in two different cohorts.
# DIO mice [3] = experiment: Conditioned place preference (CPP) assay in DIO mice; format: in vivo; details: fed and fasting conditions, vs vehicle
# Method: DIO mice were treated with vehicle or ACY775 (10 mg/kg, i.p., once a day) for 3 days. On the fourth day, 1 h after the beginning of the light cycle, the mice were administered vehicle or ACY775 (10 mg/kg, i.p.) and the conditioned place preference (CPP) assay under the ad libitum feeding condition was utilized. The CPP assay was performed 6 h later under the ad libitum feeding condition (n=10 mice for both the Vehicle- and ACY775-treated groups). CPP assay under a 20-h fasting condition was also performed. DIG mice were treated with vehicle or ACY775 (10 mg/kg, i.p.) once a day and fasted for 15 h after the third injection. On the fourth day, 1 h after the beginning of the light cycle, the mice were administered vehicle or ACY775 (10 mg/kg body weight, i.p.) and the CPP assay was performed 5 h after this injection under the fasting condition (n=10 mice for both the Vehicle- and ACY775-treated groups).
# Measurements were made of the total distance that the mice traveled during the CPP test, the average velocity of movement during the assay, the total time the mice spent in the dark chamber during the test; the frequency with which the mice traveled to the dark chamber during the test; the total time the mice spent in the food-paired white chamber; the frequency with which the mice traveled to the food paired white chamber; the total time the mice spent in the food-containing zone within the food-paired side chamber; and the frequency with which the mice traveled to the food-containing zone within the food-paired side chamber during the test.
# DIO mice [4] = experiment: Metabolic cages (CLAMS) in DIO mice; format: in vivo; details: for energy expenditure: 3 days, ACY775 10, ACY738 50 mg/kg i.p.
# Method: Diet induced obese (DIO) mice were placed into metabolic cages and received ACY775 (10 mg/kg, i.p., n=7) or vehicle (n=8) once a day for 3 days. Energy expenditure, respiratory exchange ratios (RER; VCO2/VO2), ambulatory count (physical activity) from each group of mice were determined. Bar graphs represent average of two dark (8-20 and 32-44 hr) and two light cycles ([…]).
# Comprehensive Lab Animal Monitoring System (CLAMS) was used to measure metabolic parameters such as energy expenditure (EE) and respiratory exchange ratio (RER) and physical activity levels in Vehicle- and ACY775-treated mice.
# WT lean mice = experiment: 3-week treatment of WT lean mice; format: in vivo; details: for lean mass, total fat mass, fat percentage / body weight: 3 weeks; for body weight: ACY775 10, ACY738 50 mg/kg i.p.; for liver morphology: end of treatment
# Method: Daily food intake (g) during 3 weeks of treatment. Serum leptin (ng/ml) levels were measured after 3 weeks of treatment. Lean mass (g); fat mass (g) and fat percentage (%) after 3 weeks of treatment were measured by DEXA scan. GTT was measured after 1 week of treatment. AOC analysis for GTT was performed. Blood glucose (mg/dl) level was measured after 1 week of treatment. ITT was measured after 2 weeks of treatment. Serum insulin (ng/ml) levels were measured after 3 weeks of treatment.
# db/db mice = experiment: 3-week treatment of db/db mice; format: in vivo; details: for glucose tolerance (GTT): 1 week; for ITT: 2 weeks; for body weight heavier than initial body weight: end of 3 weeks, ACY775 10, ACY738 50 mg/kg i.p.
# Method: Daily food intake (g), Serum leptin (ng/ml), lean mass (g), fat mass (g) and fat percentage (%) were measured after 3 weeks of treatment measured by DEXA scan. GTT was determined after 1 week of treatment. AOC analysis for GTT was performed and Blood glucose (mg/dl) levels were measured after 1 week of treatment. Blood glucose (mg/dl) levels and Serum insulin (ng/ml) levels were measured after 3 weeks of treatment. ITT was assessed after 2 weeks of treatment. H&E staining of the liver sections was conducted after 3 weeks of treatment.
# HDAC6 KO mice = experiment: 3-week treatment of DIO WT versus HDAC6 KO mice; format: in vivo; details: for body weight, HDAC6 KO vs WT DIO mice: 3 weeks i.p., ACY775 10, ACY738 50, Tubastatin A 25 mg/kg/day; for fat mass and fat %, HDAC6 KO vs WT / lean mass, HDAC6 KO vs WT: DEXA; for blood glucose, serum insulin and leptin levels, HDAC6 KO vs WT / food intake, HDAC6 KO vs WT DIO mice / glucose tolerance and insulin sensitivity (GTT, ITT), HDAC6 KO vs WT: mouse, in vivo
# [5] = cited from earlier work; for brain/plasma ratio: in vivo
Structure (SMILES),"body weight, inhibitor alone (DIO mice [1])","food intake, inhibitor alone (DIO mice [1])",body weight 15 h after leptin in inhibitor-pretreated mice (DIO mice [1]),food intake 15 h after leptin in inhibitor-pretreated mice (DIO mice [1]),food intake after a single dose (DIO mice [2]),CPP: cumulative duration in dark side chambers (DIO mice [3]),CPP: time and frequency in food-containing white side chambers (DIO mice [3]),CPP: time and frequency in the food zone (DIO mice [3]),energy expenditure (DIO mice [4]),daily food intake (WT lean mice),insulin sensitivity (ITT) and circulating insulin levels (WT lean mice),"lean mass, total fat mass, fat percentage (WT lean mice)",body weight (WT lean mice),liver morphology (WT lean mice),hepatic steatosis (db/db mice),plasma insulin levels (db/db mice),glucose tolerance (GTT) (db/db mice),ITT (db/db mice),body weight heavier than initial body weight (db/db mice),"body weight, HDAC6 KO vs WT DIO mice (HDAC6 KO mice)",further results
"O=C(NO)c1cnc(NC2(c3cccc(F)c3)CCCCC2)nc1 [ACY775, 2-[[1-(3-fluorophenyl)cyclohexyl]amino]-N-hydroxy-5-pyrimidinecarboxamide]",significantly decreased the bodyweight,reduced the food intake,further reduction in bodyweight,further augmented the negative effect of leptin on food intake,significantly reduced/blocked the food intake,no significant differences in cumulative duration,significantly shorter time and had lower frequency of appearance in the food-containing white side chambers,significantly shorter time and displayed lower frequency of appearance in the food zone,higher in the both dark and light cycle,similar,no significant difference in insulin sensitivity and circulating insulin levels,did not detect any alterations,neither ACY775 nor ACY738 affected the body weight,similar,did not improve hepatic steatosis,did not show any significant alterations,no difference in glucose tolerance,no significant difference in blood glucose levels,3.82%±0.99%,highly significant decrease in the bodyweight of the WT DIO mice when compared to HDAC6 KO DIG mice,"CPP: appearance frequency in dark side chambers (DIO mice [3]): similar; respiratory exchange ratio (RER) (DIO mice [4]; dark and light cycles): significantly decreased; fasting blood glucose after the first week (db/db mice): lower in ACY775-treated mice than vehicle-treated mice; food intake (db/db mice): transitionally reduced by ACY775 treatment during the first 2 days; blood glucose lowering at the end of treatment period (db/db mice; 3 weeks): completely diminished; fat mass and fat %, HDAC6 KO vs WT (HDAC6 KO mice): significantly lower in the wt group; lean mass, HDAC6 KO vs WT (HDAC6 KO mice): not different; blood glucose, serum insulin and leptin levels, HDAC6 KO vs WT (HDAC6 KO mice): significantly higher in the ACY775-treated HDAC6 KO group; food intake, HDAC6 KO vs WT DIO mice (HDAC6 KO mice): blocked in the HDAC6 KO mice; glucose tolerance and insulin sensitivity (GTT, ITT), HDAC6 KO vs WT (HDAC6 KO mice): could not increase glucose tolerance and insulin sensitivity in the HDAC6 KO mice; brain/plasma ratio [5]: 1.26"
O=C(CCCCCCNC(=O)c1cnc(N(c2ccccc2)c2ccccc2)nc1)NO [Ricolinostat],did not decrease the bodyweight,no effect on the food intake,did not reduce the body weight,no effect on the food intake,–,–,–,–,–,–,–,–,–,–,–,–,–,–,–,–,brain/plasma ratio [5]: 0.01 and < 0.01; brain/plasma ratio ([5]; listed as ricolinostat): 0.01; brain penetrance / BBB permeability ([5]; in words): poor BBB permeability
O=C(NO)c1cnc(NC2(c3ccccc3)CC2)nc1 [ACY738],–,–,significantly augmented the acute leptin-induced reduction in body weight and food intake,significantly augmented the acute leptin-induced reduction in body weight and food intake,significantly reduced/blocked the food intake,no significant differences in cumulative duration,spent similar time and frequency of appearance,significantly shorter time and displayed lower frequency of appearance in the food zone,"higher energy expenditure in light cycle, though without significant difference in dark cycle",similar,no significant difference in insulin sensitivity and circulating insulin levels,did not detect any alterations,neither ACY775 nor ACY738 affected the body weight,similar,did not improve hepatic steatosis,did not show any significant alterations,no difference in glucose tolerance,no significant difference in blood glucose levels,2.53%±0.97%,slight decrease in the HDAC6KO mice,"fat mass and fat %, HDAC6 KO vs WT (HDAC6 KO mice): significantly lower in the wt group; lean mass, HDAC6 KO vs WT (HDAC6 KO mice): not different; reduction of bodyweight of the wt mice (HDAC6 KO mice; DIO wt mice, ACY738 50 mg/kg i.p.): around 20%; blood glucose, serum insulin and leptin levels, HDAC6 KO vs WT (HDAC6 KO mice): significantly higher in the ACY738-treated HDAC6 KO group; food intake, HDAC6 KO vs WT DIO mice (HDAC6 KO mice): significantly higher in the HDAC6 KO group; glucose tolerance and insulin sensitivity (GTT, ITT), HDAC6 KO vs WT (HDAC6 KO mice): did not improve glucose tolerance and increase insulin sensitivity in the HDAC6 KO mice"
